Test results taken from patent US20200095223A1, “NOVEL TRIAZOLETHIONE DERIVATIVES” (priority 2017, published 2020).

Assay: Log P by HPLC on reversed phase columns (EEC directive 79/831 Annex V.A8)
Type: physicochemical
Details: reversed phase HPLC column; method [a]: LC-UV, acidic range, 0.1% formic acid in water and acetonitrile as eluent
Protocol: Log P values: […] If more than one Log P value is available within the same method, all the values are given and separated by “+”. Calibration was done with straight-chain alkan2-ones (with 3 to 16 carbon atoms) with known Log P values (measurement of Log P values using retention times with linear interpolation between successive alkanones). Lambda-max-values were determined using UV-spectra from 200 nm to 400 nm and the peak values of the chromatographic signals.

Row | Compound | chromatographic logP
1 | CC(O)(Cn1nc[nH]c1=S)c1ccc(Oc2ccc(Cl)cc2)nc1C(F)(F)F (centres unmarked) [I-S-03, 2-[2-[6-(4-chlorophenoxy)-2-(trifluoromethyl)-3-pyridyl]-2-hydroxy-propyl]-4H-1,2,4-triazole-3-thione] | 3.11
2 | CC(O)(Cn1nc[nH]c1=S)c1ccc(Oc2ccc(Br)cc2)nc1C(F)(F)F (centres unmarked) [I-S-01, 2-[2-[6-(4-bromophenoxy)-2-(trifluoromethyl)-3-pyridyl]-2-hydroxy-propyl]-4H-1,2,4-triazole-3-thione] | 3.21
3 | OC(Cn1nc[nH]c1=S)(c1ccc(Oc2ccc(Br)cc2)nc1C(F)(F)F)C1CC1 (centres unmarked) [I-S-04, 2-[2-[6-(4-bromophenoxy)-2-(trifluoromethyl)-3-pyridyl]-2-cyclopropyl-2-hydroxy-ethyl]-4H-1,2,4-triazole-3-thione] | 3.87

Continued, values first:

Row | chromatographic logP | Compound
4 | 2.66 | CC(O)(Cn1nc[nH]c1=S)c1ccc(Oc2ccccc2)nc1C(F)(F)F (centres unmarked) [I-S-02, 2-[2-hydroxy-2-[6-phenoxy-2-(trifluoromethyl)-3-pyridyl]propyl]-4H-1,2,4-triazole-3-thione]
5 | 3.27 | OC(Cn1nc[nH]c1=S)(c1ccc(Oc2ccccc2)nc1C(F)(F)F)C1CC1 (centres unmarked) [I-S-06, 2-[2-cyclopropyl-2-hydroxy-2-[6-phenoxy-2-(trifluoromethyl)-3-pyridyl]ethyl]-4H-1,2,4-triazole-3-thione]
